Where two headings read alike, the source gives them in different places.
Columns and labels:
AChE [1] = molecular target: T1, AChE (Homo sapiens, UniProt P22303); test: biochemical; details: mean ± SD
Protocol: (§1) A previously described modified protocol of Ellman's spectrophotometric assay in clear flat-bottomed, 96-well plates, was used. […] The absorbance of each well was measured at 415 nm using a microplate reader. […]

BChE = BChE (Homo sapiens, UniProt P06276); test: BChE inhibition, modified Ellman's spectrophotometric assay; format: biochemical; details: mean ± SD
Sequence of BChE (P06276 29-602): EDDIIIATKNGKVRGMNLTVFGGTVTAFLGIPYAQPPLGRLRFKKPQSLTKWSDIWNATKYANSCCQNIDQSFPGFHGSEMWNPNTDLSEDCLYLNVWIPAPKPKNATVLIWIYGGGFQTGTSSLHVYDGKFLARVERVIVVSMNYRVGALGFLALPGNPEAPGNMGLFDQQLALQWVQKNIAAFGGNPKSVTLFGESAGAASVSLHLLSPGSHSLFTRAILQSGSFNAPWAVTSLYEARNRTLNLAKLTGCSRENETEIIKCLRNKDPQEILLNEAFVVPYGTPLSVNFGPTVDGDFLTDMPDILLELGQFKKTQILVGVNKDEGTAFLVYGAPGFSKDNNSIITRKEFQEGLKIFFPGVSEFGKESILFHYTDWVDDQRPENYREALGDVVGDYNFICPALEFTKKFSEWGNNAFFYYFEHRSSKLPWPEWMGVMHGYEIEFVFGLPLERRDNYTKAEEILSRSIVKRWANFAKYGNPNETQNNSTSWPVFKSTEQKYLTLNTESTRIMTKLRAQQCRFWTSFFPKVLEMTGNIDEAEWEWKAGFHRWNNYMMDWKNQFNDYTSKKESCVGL
Protocol: as §1

AChE [2] = molecular target: T1, AChE; details: cited from earlier work
[3] = 50 µM compound, NA = not active

T1 sequence (P22303 32-614): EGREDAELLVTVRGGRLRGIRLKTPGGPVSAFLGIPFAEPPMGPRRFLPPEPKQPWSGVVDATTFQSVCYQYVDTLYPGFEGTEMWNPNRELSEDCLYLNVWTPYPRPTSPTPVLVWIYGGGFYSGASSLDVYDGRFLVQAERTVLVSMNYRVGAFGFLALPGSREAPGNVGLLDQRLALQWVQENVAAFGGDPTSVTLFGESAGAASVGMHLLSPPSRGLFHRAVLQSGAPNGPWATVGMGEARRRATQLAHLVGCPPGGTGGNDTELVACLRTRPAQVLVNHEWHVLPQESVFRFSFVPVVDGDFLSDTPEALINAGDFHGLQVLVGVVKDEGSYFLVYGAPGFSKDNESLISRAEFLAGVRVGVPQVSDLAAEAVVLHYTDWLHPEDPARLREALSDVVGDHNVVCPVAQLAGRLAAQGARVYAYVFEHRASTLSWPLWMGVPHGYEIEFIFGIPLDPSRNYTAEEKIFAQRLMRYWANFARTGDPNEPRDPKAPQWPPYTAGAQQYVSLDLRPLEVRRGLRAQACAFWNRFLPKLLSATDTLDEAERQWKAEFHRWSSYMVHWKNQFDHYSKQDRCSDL

Compound | inhibition at 50 µM (AChE [1]; [3]) [%] | inhibition at 50 µM (BChE; [3]) [%] | also measured
Cc1ccc(-c2c(C(C#N)C(N)=O)c([N+](=O)[O-])c3n2CCCN3)cc1 (stereo not shown) [Compound 4a, 2-cyano-2-(8-nitro-6-(p-tolyl)-1,2,3,4-tetrahydropyrrolo[1,2-a]pyrimidin-7-yl)acetamide] | 14.7 ± 2.26 | 26.1 ± 4.09 | 
COc1ccc(-n2c(SC)c([N+](=O)[O-])c(C(C#N)C(N)=O)c2-c2ccc(Cl)cc2)cc1 (stereo not shown) [Compound 4aa, 2-(2-(4-chlorophenyl)-1-(4-methoxyphenyl)-5-(methylthio)-4-nitro-1H-pyrrol-3-yl)-2-cyanoacetamide] | 48.6 ± 2.77 | 22.3 ± 3.91 | IC50 (AChE [1]): 54.6 ± 5.71 µM
CCOC(=O)C(C(N)=O)c1c([N+](=O)[O-])c(SC)n(-c2ccc(OC)cc2)c1-c1ccc(Cl)cc1 (stereo not shown) [Compound 4ac, Ethyl 3-amino-2-(2-(4-chlorophenyl)-1-(4-methoxyphenyl)-5-(methylthio)-4-nitro-1H-pyrrol-3-yl)-3-oxopropanoate] | 11.8 ± 3.92 | 33.8 ± 4.84 | 
CSc1c([N+](=O)[O-])c(C(C#N)C(N)=O)c(-c2ccc(C)cc2)n1-c1ccc(O)cc1 (stereo not shown) [Compound 4ae, 2-cyano-2-(1-(4-hydroxyphenyl)-5-(methylthio)-4-nitro-2-(p-tolyl)-1H-pyrrol-3-yl)acetamide] | 52.4 ± 5.07 | 17.1 ± 3.49 | IC50 (AChE [1]): 33.1 ± 3.11 µM
COC(=O)C(C(N)=O)c1c([N+](=O)[O-])c(SC)n(-c2ccc(C)cc2)c1-c1ccccc1 (stereo not shown) [Compound 4af, Methyl 3-amino-2-(5-(methylthio)-4-nitro-2-phenyl-1-(p-tolyl)-1H-pyrrol-3-yl)-3-oxopropanoate] | 24 ± 4.6 |  | 
CSc1c([N+](=O)[O-])c(C(C#N)C(N)=O)c(-c2ccc(C)cc2)n1-c1ccc(C)cc1 (stereo not shown) [Compound 4ag, 2-cyano-2-(5-(methylthio)-4-nitro-1,2-di-p-tolyl-1H-pyrrol-3-yl)acetamide] | 33.3 ± 2.31 |  | 
CSc1c([N+](=O)[O-])c(C(C#N)C(N)=O)c(-c2ccc(Cl)cc2)n1-c1ccc(C)cc1 (stereo not shown) [Compound 4ah, 2-(2-(4-chlorophenyl)-5-(methylthio)-4-nitro-1-(p-tolyl)-1H-pyrrol-3-yl)-2-cyanoacetamide] | 72.5 ± 3.05 |  | IC50 (AChE [1]): 4.78 ± 1.63 µM
CCOC(=O)C(C(N)=O)c1c([N+](=O)[O-])c(SC)n(-c2ccc(C)cc2)c1-c1ccccc1 (stereo not shown) [Compound 4ai, Ethyl3-amino-2-(5-(methylthio)-4-nitro-2-phenyl-1-(p-tolyl)-1H-pyrrol-3-yl)-3-oxopropanoate] | 24.2 ± 2.23 |  | 
COC(=O)C(C(N)=O)c1c([N+](=O)[O-])c(SC)n(-c2ccc(C)c(C)c2)c1-c1ccccc1 (stereo not shown) [Compound 4aj, Methyl3-amino-2-(1-(3,4-dimethylphenyl)-5-(methylthio)-4-nitro-2-phenyl-1H-pyrrol-3-yl)-3-oxopropanoate] | 38.9 ± 5.99 |  | 
CC1(C)CNc2c([N+](=O)[O-])c(C(C#N)C(N)=O)c(-c3ccccc3)n2C1 (stereo not shown) [Compound 4b, 2-cyano-2-(3,3-dimethyl-8-nitro-6-phenyl-1,2,3,4-tetrahydropyrrolo[1,2-a]pyrimidin-7-yl)acetamide] | 52 ± 4.43 |  | IC50 (AChE [1]): 37.1 ± 3.52 µM
N#CC(C(N)=O)c1c([N+](=O)[O-])c2n(c1-c1ccccc1)CCCN2 (stereo not shown) [Compound 4c, 2-cyano-2-(8-nitro-6-phenyl-1,2,3,4-tetrahydropyrrolo[1,2-a]pyrimidin-7-yl)acetamide] | 39.8 ± 3.69 |  | 
CCOC(=O)C(C(N)=O)c1c([N+](=O)[O-])c2n(c1-c1ccccc1)CC(C)(C)CN2 (stereo not shown) [Compound 4d, Ethyl3-amino-2-(3,3-dimethyl-8-nitro-6-phenyl-1,2,3,4-tetrahydropyrrolo[1,2-a]pyrimidin-7-yl)-3-oxopropanoate] | 13.5 ± 1.58 | 13.5 ± 2.96 | 
CC1(C)CNc2c([N+](=O)[O-])c(C(C#N)C(N)=O)c(-c3ccc(Cl)cc3)n2C1 (stereo not shown) [Compound 4e, 2-(6-(4-chlorophenyl)-3,3-dimethyl-8-nitro-1,2,3,4-tetrahydropyrrolo[1,2-a]pyrimidin-7-yl)-2-cyanoacetamide] | 57 ± 5.46 | 18.1 ± 2.89 | IC50 (AChE [1]): 36.3 ± 4.85 µM
COc1cccc(-c2c(C(C#N)C(N)=O)c([N+](=O)[O-])c3n2CCCN3)c1 (stereo not shown) [Compound 4f, 2-cyano-2-(6-(3-methoxyphenyl)-8-nitro-1,2,3,4-tetrahydropyrrolo[1,2-a]pyrimidin-7-yl)acetamide] | 33.5 ± 5.19 | 17.8 ± 2.79 | 
CCOC(=O)C(C(N)=O)c1c([N+](=O)[O-])c2n(c1-c1ccccc1)CCCN2 (stereo not shown) [Compound 4g, Ethyl 3-amino-2-(8-nitro-6-phenyl-1,2,3,4-tetrahydropyrrolo[1,2-a]pyrimidin-7-yl)-3-oxopropanoate] | 30.8 ± 5.17 |  | 
Cc1ccc(-c2c(C(C#N)C(N)=O)c([N+](=O)[O-])c3n2CC(C)(C)CN3)cc1 (stereo not shown) [Compound 4h, 2-cyano-2-(3,3-dimethyl-8-nitro-6-(p-tolyl)-1,2,3,4-tetrahydropyrrolo[1,2-a]pyrimidin-7-yl)acetamide] | 45.8 ± 2.81 |  | IC50 (AChE [1]): 67.6 ± 7.54 µM
N#CC(C(N)=O)c1c([N+](=O)[O-])c2n(c1-c1ccc(Cl)cc1)CCCN2 (stereo not shown) [Compound 4i, 2-(6-(4-chlorophenyl)-8-nitro-1,2,3,4-tetrahydropyrrolo[1,2-a]pyrimidin-7-yl)-2-cyanoacetamide] | 33.9 ± 6.87 |  | 

Compound | inhibition at 50 µM (AChE [1]; [3]) [%] | inhibition at 50 µM (BChE; [3]) [%] | also measured
COC(=O)C(C(N)=O)c1c([N+](=O)[O-])c2n(c1-c1ccc(C)cc1)CC(C)(C)CN2 (stereo not shown) [Compound 4j, Methyl3-amino-2-(3,3-dimethyl-8-nitro-6-(p-tolyl)-1,2,3,4-tetrahydropyrrolo[1,2-a]pyrimidin-7-yl)-3-oxopropanoate] | 14.9 ± 2.45 | 28.2 ± 3.83 | 
COC(=O)C(C(N)=O)c1c([N+](=O)[O-])c2n(c1-c1ccc(Cl)cc1)CC(C)(C)CN2 (stereo not shown) [Compound 4k, Methyl3-amino-2-(6-(4-chlorophenyl)-3,3-dimethyl-8-nitro-1,2,3,4-tetrahydropyrrolo[1,2-a]pyrimidin-7-yl)-3-oxopropanoate] | 13.3 ± 4.88 | 13.7 ± 2.13 | 
CCOC(=O)C(C(N)=O)c1c([N+](=O)[O-])c2n(c1-c1ccc(C)cc1)CC(C)(C)CN2 (stereo not shown) [Compound 4l, Ethyl3-amino-2-(3,3-dimethyl-8-nitro-6-(p-tolyl)-1,2,3,4-tetrahydropyrrolo[1,2-a]pyrimidin-7-yl)-3-oxopropanoate] | 14.2 ± 2.12 |  | 
CCOC(=O)C(C(N)=O)c1c([N+](=O)[O-])c(NCc2ccco2)n(Cc2ccco2)c1-c1ccc(Cl)cc1 (stereo not shown) [Compound 4n, Ethyl3-amino-2-(2-(4-chlorophenyl)-1-(furan-2-ylmethyl)-5-((furan-2-ylmethyl)amino)-4-nitro-1H-pyrrol-3-yl)-3-oxopropanoate] |  | 21.9 ± 1.18 | 
Cc1ccc(-c2c(C(C#N)C(N)=O)c([N+](=O)[O-])c(NCc3ccco3)n2Cc2ccco2)cc1 (stereo not shown) [Compound 4o, 2-cyano-2-(1-(furan-2-ylmethyl)-5-((furan-2-ylmethyl)amino)-4-nitro-2-(p-tolyl)-1H-pyrrol-3-yl)acetamide] | 19.8 ± 4.18 | 46.1 ± 6.43 | IC50 (BChE): 69.2 ± 5.09 µM
N#CC(C(N)=O)c1c([N+](=O)[O-])c(NCc2ccccc2)n(Cc2ccccc2)c1-c1ccc(Cl)cc1 (stereo not shown) [Compound 4p, 2-(1-benzyl-5-(benzylamino)-2-(4-chlorophenyl)-4-nitro-1H-pyrrol-3-yl)-2-cyanoacetamide] | 18.7 ± 3.52 |  | 
CCOC(=O)C(C(N)=O)c1c([N+](=O)[O-])c(NCc2ccco2)n(Cc2ccco2)c1-c1ccc(C)cc1 (stereo not shown) [Compound 4q, Ethyl3-amino-2-(1-(furan-2-ylmethyl)-5-((furan-2-ylmethyl)amino)-4-nitro-2-(p-tolyl)-1H-pyrrol-3-yl)-3-oxopropanoate] | 17.8 ± 2.44 | 68.4 ± 6.35 | IC50 (BChE): 18.6 ± 2.71 µM
N#CC(C(N)=O)c1c([N+](=O)[O-])c(NCc2ccco2)n(Cc2ccco2)c1-c1ccc(Cl)cc1 (stereo not shown) [Compound 4s, 2-(2-(4-chlorophenyl)-1-(furan-2-ylmethyl)-5-((furan-2-ylmethyl)amino)-4-nitro-1H-pyrrol-3-yl)-2-cyanoacetamide] |  | 29.5 ± 3.87 | 
CCOC(=O)C(C(N)=O)c1c([N+](=O)[O-])c(NCc2ccccc2)n(Cc2ccccc2)c1-c1ccc(C)cc1 (stereo not shown) [Compound 4t, Ethyl 3-amino-2-(1-benzyl-5-(benzylamino)-4-nitro-2-(p-tolyl)-1H-pyrrol-3-yl)-3-oxopropanoate] |  | 26.5 ± 5.12 | 
N#CC(C(N)=O)c1c(-c2ccc(Cl)cc2)[nH]c(N)c1[N+](=O)[O-] (stereo not shown) [Compound 4w, 2-(5-amino-2-(4-chlorophenyl)-4-nitro-1H-pyrrol-3-yl)-2-cyanoacetamide] | 48.6 ± 4.53 | 33.5 ± 3.4 | 
COc1ccc(-c2[nH]c(N)c([N+](=O)[O-])c2C(C#N)C(N)=O)cc1 (stereo not shown) [Compound 4x, 2-(5-amino-2-(4-methoxyphenyl)-4-nitro-1H-pyrrol-3-yl)-2-cyanoacetamide] | 47.7 ± 3.91 | 19.4 ± 3.91 | 
N#CC(C(N)=O)c1c(-c2ccc3ccccc3c2)[nH]c(N)c1[N+](=O)[O-] (stereo not shown) [Compound 4y, 2-(5-amino-2-(naphthalen-2-yl)-4-nitro-1H-pyrrol-3-yl)-2-cyanoacetamide] |  | 19.1 ± 4.3 | 
CSc1c([N+](=O)[O-])c(C(C#N)C(N)=O)c(-c2ccc(C)cc2)n1-c1ccc(C)c(C)c1 (stereo not shown) [Compound 4z, 2-cyano-2-(1-(3,4-dimethylphenyl)-5-(methylthio)-4-nitro-2-(p-tolyl)-1H-pyrrol-3-yl)acetamide] | 26.7 ± 5.14 |  | 
COc1cccc2cc(C(=O)/C=C/c3ccc[n+](Cc4ccccc4Br)c3)oc12 [D] |  |  | IC50 (AChE [2]; Fig. 2 traditional AChE inhibitors, read-out: IC50 against AChE): 0.027 µM
Cc1nc2ccccc2c2cc[nH]c12 [G] |  |  | IC50 (AChE [2]; Fig. 3, target per b17 AChE, read-out: IC50): 4.9 ± 0.9 µM
Ethyl3-amino-2-(5-(methylthio)-4-nitro-1-phenyl-2-(p-tolyl)-1H-pyrrol-3-yl)-3-oxopropanoate [Compound 4ak] |  |  | AChE % inhibition at 50 µM (AChE [1]; [3]): 20.79 ± 2.62%; BChE % inhibition at 50 µM (BChE; [3]): 25.56 ± 6.89%

— paper PMC9454393 (Scientific Reports, 2022)
